The record followed here is patent US20230218714A1, “DIAGNOSTICS AND USE OF QUORUM SENSING MOLECULES IN MUSCLE WASTING” (Universiteit Gent, priority 2019, published 2023).

“And” between values parts separate entries of the source, which are not always exact repeats. Equal entries are not always repeated. “Also recorded” adds a separate entry of the source.

Experiment [1] deals with GDF15 production by C2C12 myotubes. Briefly: GDF15 production by C2C12 myotubes (sandwich ELISA), mitochondrial changes. Type of experiment: cell-based, mouse. The conditions noted are these: QSM 1 μM, C2C12 myotubes. The method, then: GDF15 levels were determined in the supernatants of C2C12 cells after QSM, placebo or positive control (oligomyin) treatment, using a sandwich ELISA (R&D Systems). A similar protocol as described for the IL-6 determination was used.
GDF15 is considered a useful biomarker for direct or indirect changes in mitochondrial function. Moreover, GDF15 is implicated in muscle wasting diseases like sarcopenia, chronic obstructive pulmonary disease cachexia and critical illness.

The subject of experiment [2] is atrogin, MuRF1, caspase 3 and atg7. Briefly: Protein degradation gene expression in C2C12 cells (RT-qPCR). Type of experiment: cell-based, mouse. The method, then:
C2C12 cells were seeded in 6-well (4×10^5 cells/well) or 12-well plates (1.5×10^5 cells/well). […] Thereafter, cells were scraped off from the well surface and resuspended in RLT lysis buffer (Qiagen). RNA was extracted from these lysed cells using RNeasy micro columns (Qiagen). Subsequently, RNA was reverse-transcribed using a mix of oligo-dT and random primers together with Quantiscript reverse transcriptase (Qiagen). DNAse steps were included in the protocol to remove possible DNA contamination. Real-time PCR was performed starting with 7.5 ng cDNA and both sense and antisense oligonucleotides in a final volume of 8 μl in a 384-well plate using the SensiMix SYBR green PCR master mix (Bioline). The following genes were analysed: atrogin, MuRF1, caspase 3 and atg7.
The second derivative method was used to determine the threshold or Cq values, with analysis of Ppia (Peptidylprolyl isomerase A), Rer (Rhodopsin enhancer region) and Hprt (Hypoxanthine-guanine phosphoribosyltransferase) mRNA to normalize gene expression (delta Cq method). […]
To screen the possible effects of 75 QSM on these 3 proteolysis systems, mRNA transcripts of the following representative genes were measured: atrogin and MuRF1 (UPS), caspase 3 (apoptosis system) and autophagy-related protein 7 (autophagy system). […]
(In qPCR the cycle at which signal appears reflects the starting amount.)

For experiment [3], the system named is IL-6 production by C2C12 myotubes. Nature of the experiment: IL-6 production by C2C12 myotubes (sandwich ELISA). Type of experiment: cell-based, mouse. The settings on record: for Effect: inflammation (IL-6 production, hit direction): screening at 1 μM. The method, then:
C2C12 myoblasts (2.5×10^4 cells/well) were seeded in 96-well plates and incubated until they reached 80% confluency, after which the proliferation medium was removed and replaced by differentiation medium. After 6 days of incubation with daily renewed differentiation medium, the cells were treated with 1 μM of QSM, placebo or positive control (LPS) for 24 hours. IL-6 levels were determined in the supernatants using a sandwich ELISA (eBioscience), using IL-6 capture antibody, blocking solution, samples and standards, IL-6 detection antibody, avidin-horseradish peroxidase and substrate solution which were added sequentially, with washing steps in between. After stopping the reaction with H2SO4 solution, the absorbance was measured at 450 nm and 570 nm (correction wavelength) using a microplate reader (ThermoLab Systems). Concentrations were determined using the standard curves generated with known concentrations of IL-6.
Several pro-inflammatory cytokines are elevated in sepsis, cancer, ageing and other catabolic diseases. They are thought to trigger muscle wasting (partly) through NF-kB pathways. […] In these screening experiments, the effects of QSM on myotube IL-6 production were assessed using a sandwich ELISA.
In a further set of experiments, using similar methods as described for the screening experiments, a number of QSPs were tested for a dose response relation in C2C12 cells.
Background: ELISA stands for enzyme-linked immunosorbent assay.

Experiment [4] concerns human muscle cells. Nature of the experiment: IL-6 production dose response in human muscle cells. Type of experiment: cell-based. The settings on record: FIG. 12. The method, then: Differentiation medium consisted of high glucose Glutamax DMEM supplemented with penicillin (100 units/ml), streptomycin (100 μg/ml) and insulin (10 μg/mL).
Using similar methods as described for the C2C12 experiments, a number of QSPs were tested for a dose response relation in human muscle cells.

In experiment [5] the test system is C2C12 cells. Briefly: Co-treatment of C2C12 cells with Q176 and ala-scan derivative, MTT response. Type of experiment: cell-based, mouse. The settings on record: Q176 50 μM plus derivative 60 μM. The text has this:
(§1) Means±SEM, n=6. * P<0.05; ** P<0.01, *** P<0.001; paired Student's t test.

Experiment [6] relates to C2C12 cells. Nature of the experiment: Co-treatment of C2C12 cells with QSP and ala-scan derivative, IL-6 response. Type of experiment: cell-based, mouse. The settings on record: Q176 50 μM plus derivative 60 μM.
Text: as §1

Take NEVPFEF [Q146]: the “GDF15 secretion, effect relative to median” value in experiment [1] is reported as 80%. Also, in experiment [2] (QSM 1 μM, 24 h, individual screening), the “decrease in MuRF1 gene expression compared to placebo” value was ~20% and 20%. The “Effect: proteolysis (hit direction)” value in experiment [2] (screening at 1 μM) is “↓ proteolysis”.

As to ESRVSRIILDFLFQRKK [Q055], the “Relative IL-6” value in experiment [3] (concentration 0.20 μM) is listed as 0.94; in experiment [3] (concentration 0.39 μM), 1.07; in experiment [3] (concentration 1.56 μM) it was 0.93; in experiment [3] (concentration 3.13 μM), 1.24; in experiment [3] (concentration 6.25 μM), 1.24; in experiment [3] (concentration 12.5 μM) it was 3.60. Further, the “Relative IL-6” value worked out at 5.56 in experiment [3] (concentration 25 μM), 8.94 in experiment [3] (concentration 50 μM) and 6.48 in experiment [3] (concentration 100 μM). Also, the “Effect: inflammation (IL-6 production, hit direction)” value (“Effect: inflammation” for short) in experiment [3] was “increased IL-6 production; also recorded: ↑ inflammation”. Also, in experiment [4], the “dose response relation, IL6 production” value is “Typical curves were obtained”.

With SGSLSTFFRLFNRSFTQALGK [Q176], the “Relative IL-6” value in experiment [3] (concentration 0.20 μM) is 1.00; in experiment [3] (concentration 0.39 μM) it was 0.89; in experiment [3] (concentration 1.56 μM) it was 1.53; in experiment [3] (concentration 3.13 μM), 1.61; in experiment [3] (concentration 6.25 μM) it was 2.39; in experiment [3] (concentration 12.5 μM), 3.24. Further, the “Relative IL-6” value came to 3.49 in experiment [3] (concentration 25 μM), 5.81 in experiment [3] (concentration 50 μM) and 6.01 in experiment [3] (concentration 100 μM). Moreover, in experiment [3], the “Effect: inflammation” value is “increased IL-6 production; also recorded: ↑ inflammation”. The “dose response relation, IL6 production” value in experiment [4] is recorded as “Typical curves were obtained”.

Take KSSAYSLQMGATAIKQVKKLFKKWGW [Q125]: the “relative IL-6 production” value in experiment [3] (QSM 1 μM, 24 h, relative to median of all QSM) worked out at 171%. Also, the “Relative IL-6” value in experiment [3] (concentration 0.20 μM) amounted to 0.89; in experiment [3] (concentration 0.39 μM), 0.90; in experiment [3] (concentration 1.56 μM), 1.28; in experiment [3] (concentration 3.13 μM), 1.96; in experiment [3] (concentration 6.25 μM), 2.08; in experiment [3] (concentration 12.5 μM) it was 4.89. Moreover, the “Relative IL-6” value in experiment [3] (concentration 25 μM) is given as 5.55; in experiment [3] (concentration 50 μM), 8.23; in experiment [3] (concentration 100 μM), 9.80. Moreover, in experiment [3], the “Effect: inflammation” value is “increased IL-6 production; also recorded: ↑ inflammation”. For the same substance, the “dose response relation, IL6 production” value in experiment [4] was “Typical curves were obtained”.

With “GSLSTFFRLFNASFTQALGK (Synthetic Q176-A13)”, the “effect on Q176 mediated MTT effect” value in experiment [5] is given as “inhibiting the Q176 mediated MTT effect”; in experiment [5] (listed as QSP176-A13), “clearly abolishes both effects”. Besides, the “effect on Q176 mediated IL-6 induction” value in experiment [6] was “inhibiting the Q176 mediated IL-6 induction”; in experiment [6] (listed as QSP176-A13) it was “clearly abolishes both effects”.
